System: DIO mice (C57BL/6NTac, high fat diet)
Test: body weight study in diet-induced obese (DIO) mice, 56 days
Type: in vivo, mouse
Conditions: DA 92.4 mg/kg, CQL 50 mg/kg, gavage BID
Method: This example provides results of a study of DA plus another compound (CQL) on body weight in diet-induced (DIO) mice. Adult C57BL/6NTac mice were fed with a high fat diet (60%). Vehicle group (N=15) were treated with distilled water by gavage BID, CQL (N=15) were treated at 50 mg/kg by gavage BID, and DA (N=15) at a dose of 92.4 mg/kg by gavage BID. The study period was for 56 days+2-3 days testing period afterward. […] Metabolic biomarkers were measured on days 28 and 56. Cytokine analysis on Days 28 and 56. Serum levels of GLP-1, GLP-2, and CCK at 1 h after dosing on Days 1 and 56, and at 2 h after dosing on Day 7 (dosing (>6 h fasting prior to dosing until after blood collection); and serum level of PPY on Day 56.

Oc1c(I)cc(Cl)c2cccnc12 [CQL]
serum HbA1c level at Day 28: significantly reduced | serum HbA1c level at Day 56: considerably increased | daily water intake at Day 28 (compared to vehicle): significantly decreased

Source: patent publication US20220193013A1, “Pharmaceutical Composition for Treatment or Prevention of Multiple Inflammatory Disorders” (priority 2020, published 2022)
